The experiment deals with T1, AKR1C3 (Homo sapiens, UniProt P42330).
T1 sequence (P42330 1-323): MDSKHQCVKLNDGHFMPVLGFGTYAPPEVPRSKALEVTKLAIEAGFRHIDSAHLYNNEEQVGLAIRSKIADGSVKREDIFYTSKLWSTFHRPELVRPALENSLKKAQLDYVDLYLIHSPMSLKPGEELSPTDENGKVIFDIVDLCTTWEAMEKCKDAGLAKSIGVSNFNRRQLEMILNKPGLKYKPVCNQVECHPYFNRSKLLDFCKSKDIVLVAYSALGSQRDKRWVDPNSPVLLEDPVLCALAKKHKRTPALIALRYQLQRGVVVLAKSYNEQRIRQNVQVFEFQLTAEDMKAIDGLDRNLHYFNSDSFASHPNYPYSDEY
Kind of experiment: S-tetralol oxidation assay, recombinant AKR1C3, absorbance at […] nm. The format is biochemical.

Turning to `NS(=O)(=O)c1ccc(-n2nc(CCCNC(=O)Nc3ccc(C(F)(F)F)cc3)cc2-c2ccccc2)cc1` [PTUPB, 4-(5-phenyl-3-{3-[3-(4-trifluoromethyl-phenyl)-ureido]-propyl}-pyrazol-1-yl)-benzenesulfonamide], the IC50 is about 65 nM.

As usually defined, the IC50 is the concentration that gives 50% inhibition.

These data come from publication PMC9975039 (Oncogene, 2023).
